The values below are quoted from earlier work in US7271167B2, “Compounds, compositions, and methods” (Cytokinetics, Inc., priority 2002, dated 2007).

Each structure is given as a SMILES string.

The subject of the data set is A549 cells. The note with it: data provided by National Cancer Institute, Developmental Therapeutic Program.
With `CC(=O)O[C@H]1C(=O)[C@@]2(C)[C@H]([C@H](OC(=O)c3ccccc3)[C@]3(O)C[C@H](OC(=O)[C@H](O)[C@@H](NC(=O)c4ccccc4)c4ccccc4)C(C)=C1C3(C)C)[C@]1(OC(C)=O)CO[C@@H]1C[C@@H]2O` [paclitaxel], the GI50 was 0.004 µM.
For the compound `COc1cccc2c1C(=O)c1c(O)c3c(c(O)c1C2=O)C[C@@](O)(C(=O)CO)C[C@@H]3O[C@H]1C[C@H](N)[C@H](O)[C@H](C)O1` [doxorubicin], the GI50 is 0.063 µM.
`O=c1[nH]cc(F)c(=O)[nH]1` [5-fluorouracil]: the GI50 is 1 µM.
With `NC(=O)NO` [hydroxyurea], the GI50 was 500 µM.
